Tests used:
Melanocortin receptor 3 = Melanocortin receptor 3 (Homo sapiens, UniProt P41968)
[1] = molecular target: T1, Type-1 angiotensin II receptor (Homo sapiens, UniProt P30556)
T1 sequence (P30556 whole entry): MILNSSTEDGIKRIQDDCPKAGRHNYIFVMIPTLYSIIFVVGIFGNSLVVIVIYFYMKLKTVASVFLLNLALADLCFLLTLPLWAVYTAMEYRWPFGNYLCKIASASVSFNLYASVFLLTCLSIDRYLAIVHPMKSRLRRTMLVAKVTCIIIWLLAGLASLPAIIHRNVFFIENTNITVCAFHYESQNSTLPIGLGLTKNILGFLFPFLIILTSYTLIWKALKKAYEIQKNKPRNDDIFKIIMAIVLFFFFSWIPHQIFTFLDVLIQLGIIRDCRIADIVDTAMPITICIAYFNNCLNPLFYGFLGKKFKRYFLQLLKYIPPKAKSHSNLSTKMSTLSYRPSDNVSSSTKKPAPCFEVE

[2] = molecular target: Neuronal acetylcholine receptor subunit alpha-4 (Homo sapiens, UniProt P43681)
[3] = molecular target: Growth hormone secretagogue receptor type 1 (Homo sapiens, UniProt Q92847)
[4] = molecular target: T2, Alpha-2A adrenergic receptor (Homo sapiens, UniProt P08913); assay type: functional, cell-based
T2 sequence (P08913 whole entry): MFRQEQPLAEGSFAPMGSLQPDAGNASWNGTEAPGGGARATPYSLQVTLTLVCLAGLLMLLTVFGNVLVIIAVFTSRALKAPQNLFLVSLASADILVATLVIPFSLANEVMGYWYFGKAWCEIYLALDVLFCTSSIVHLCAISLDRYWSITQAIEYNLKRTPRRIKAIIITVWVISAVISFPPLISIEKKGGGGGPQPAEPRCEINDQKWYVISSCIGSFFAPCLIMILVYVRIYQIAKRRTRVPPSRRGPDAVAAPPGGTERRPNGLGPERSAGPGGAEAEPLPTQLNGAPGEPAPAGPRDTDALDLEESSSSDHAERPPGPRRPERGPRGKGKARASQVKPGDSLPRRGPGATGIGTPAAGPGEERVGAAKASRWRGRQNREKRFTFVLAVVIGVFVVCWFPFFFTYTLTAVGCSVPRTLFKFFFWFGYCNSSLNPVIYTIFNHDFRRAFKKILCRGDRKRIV

Adenosine receptor A3 = molecular target: T3, Adenosine receptor A3 (Homo sapiens, UniProt P0DMS8)
T3 sequence (P0DMS8 whole entry): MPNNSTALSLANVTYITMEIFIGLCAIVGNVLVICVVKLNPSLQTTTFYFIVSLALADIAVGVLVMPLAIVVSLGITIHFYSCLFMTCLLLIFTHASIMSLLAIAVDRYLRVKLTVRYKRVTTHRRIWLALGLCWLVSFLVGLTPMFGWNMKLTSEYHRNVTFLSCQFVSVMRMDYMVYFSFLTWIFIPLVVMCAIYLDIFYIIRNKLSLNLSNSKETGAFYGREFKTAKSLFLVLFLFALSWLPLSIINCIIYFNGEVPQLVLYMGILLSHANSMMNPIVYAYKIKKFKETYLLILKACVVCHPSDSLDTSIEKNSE

Motilin receptor = Motilin receptor (Homo sapiens, UniProt O43193)
Bile salt export pump = Bile salt export pump (Homo sapiens, UniProt O95342); assay type: functional
[5] = molecular target: T4, 5-hydroxytryptamine receptor 3A (Homo sapiens, UniProt P46098); assay type: functional
T4 sequence (P46098 whole entry): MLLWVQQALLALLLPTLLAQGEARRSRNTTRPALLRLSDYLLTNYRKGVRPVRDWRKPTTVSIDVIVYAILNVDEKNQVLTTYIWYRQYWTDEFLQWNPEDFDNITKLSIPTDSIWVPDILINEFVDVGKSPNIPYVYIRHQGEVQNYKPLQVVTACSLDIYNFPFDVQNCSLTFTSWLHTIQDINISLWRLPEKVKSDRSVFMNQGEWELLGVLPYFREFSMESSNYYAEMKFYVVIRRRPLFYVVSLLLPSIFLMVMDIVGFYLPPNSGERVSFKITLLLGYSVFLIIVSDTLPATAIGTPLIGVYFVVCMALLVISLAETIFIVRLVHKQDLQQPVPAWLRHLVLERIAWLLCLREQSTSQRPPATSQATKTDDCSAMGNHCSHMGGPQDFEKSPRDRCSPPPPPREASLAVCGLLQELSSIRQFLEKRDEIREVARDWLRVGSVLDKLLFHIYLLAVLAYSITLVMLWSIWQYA

[6] = molecular target: T5, 5-hydroxytryptamine receptor 1A (Homo sapiens, UniProt P08908); assay type: functional, cell-based
T5 sequence (P08908 whole entry): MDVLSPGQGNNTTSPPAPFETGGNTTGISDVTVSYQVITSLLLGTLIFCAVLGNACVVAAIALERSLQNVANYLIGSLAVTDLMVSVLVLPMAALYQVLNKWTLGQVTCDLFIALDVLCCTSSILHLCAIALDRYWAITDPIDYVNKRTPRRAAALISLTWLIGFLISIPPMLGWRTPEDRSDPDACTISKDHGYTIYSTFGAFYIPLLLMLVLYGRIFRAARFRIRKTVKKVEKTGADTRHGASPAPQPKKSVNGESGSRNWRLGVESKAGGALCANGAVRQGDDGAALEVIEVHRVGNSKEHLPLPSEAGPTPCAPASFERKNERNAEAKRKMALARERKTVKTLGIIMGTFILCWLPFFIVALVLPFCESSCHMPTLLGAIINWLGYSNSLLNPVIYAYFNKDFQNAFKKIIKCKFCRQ

[7] = molecular target: 5-hydroxytryptamine receptor 2B (Homo sapiens, UniProt P41595); assay type: functional, cell-based
D(3) dopamine receptor = D(3) dopamine receptor (Homo sapiens, UniProt P35462)
Adenosine receptor A2a = Adenosine receptor A2a (Homo sapiens, UniProt P29274)
[8] = molecular target: Sodium-dependent noradrenaline transporter (Homo sapiens, UniProt P23975)
Also: assay procedure not described here.

Chain of 5-hydroxytryptamine receptor 2B (P41595 whole entry): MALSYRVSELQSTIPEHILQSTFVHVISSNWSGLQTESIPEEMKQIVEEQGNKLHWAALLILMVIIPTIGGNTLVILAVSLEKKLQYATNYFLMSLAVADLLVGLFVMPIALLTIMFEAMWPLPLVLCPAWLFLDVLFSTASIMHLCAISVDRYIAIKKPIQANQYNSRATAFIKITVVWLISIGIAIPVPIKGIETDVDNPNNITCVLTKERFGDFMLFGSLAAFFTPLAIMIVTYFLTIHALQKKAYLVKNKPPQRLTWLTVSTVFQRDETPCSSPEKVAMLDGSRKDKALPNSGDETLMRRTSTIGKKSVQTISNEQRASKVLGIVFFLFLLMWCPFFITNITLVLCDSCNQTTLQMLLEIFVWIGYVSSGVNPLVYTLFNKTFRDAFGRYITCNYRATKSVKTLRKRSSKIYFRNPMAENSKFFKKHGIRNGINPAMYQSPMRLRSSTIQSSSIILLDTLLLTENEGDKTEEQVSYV
Chain of Melanocortin receptor 3 (P41968 whole entry): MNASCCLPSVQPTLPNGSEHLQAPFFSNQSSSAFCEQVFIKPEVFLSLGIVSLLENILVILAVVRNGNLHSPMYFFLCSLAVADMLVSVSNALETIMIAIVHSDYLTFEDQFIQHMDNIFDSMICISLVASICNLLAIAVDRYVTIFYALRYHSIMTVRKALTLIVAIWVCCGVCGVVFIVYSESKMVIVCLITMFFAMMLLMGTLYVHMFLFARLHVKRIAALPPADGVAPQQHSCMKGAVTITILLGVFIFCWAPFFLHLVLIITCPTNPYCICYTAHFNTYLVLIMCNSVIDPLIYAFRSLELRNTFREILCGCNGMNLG
Chain of Neuronal acetylcholine receptor subunit alpha-4 (P43681 whole entry): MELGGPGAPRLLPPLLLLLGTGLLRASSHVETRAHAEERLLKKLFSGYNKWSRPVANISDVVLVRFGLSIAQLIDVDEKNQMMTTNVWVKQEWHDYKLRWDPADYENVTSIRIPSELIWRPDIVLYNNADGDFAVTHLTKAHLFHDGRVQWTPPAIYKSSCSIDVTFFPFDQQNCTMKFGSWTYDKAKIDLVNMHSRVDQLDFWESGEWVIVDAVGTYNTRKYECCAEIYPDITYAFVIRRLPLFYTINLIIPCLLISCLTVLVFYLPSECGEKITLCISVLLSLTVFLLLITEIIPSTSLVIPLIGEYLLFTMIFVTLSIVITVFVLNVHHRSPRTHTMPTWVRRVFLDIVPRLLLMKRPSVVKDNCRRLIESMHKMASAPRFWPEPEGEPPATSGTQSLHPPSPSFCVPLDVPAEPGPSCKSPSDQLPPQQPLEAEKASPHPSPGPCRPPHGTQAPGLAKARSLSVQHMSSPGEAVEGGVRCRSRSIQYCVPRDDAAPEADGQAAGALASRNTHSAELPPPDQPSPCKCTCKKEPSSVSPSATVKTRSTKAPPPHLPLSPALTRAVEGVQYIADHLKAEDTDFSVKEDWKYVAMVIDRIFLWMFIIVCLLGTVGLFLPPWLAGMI
Chain of Adenosine receptor A2a (P29274 whole entry): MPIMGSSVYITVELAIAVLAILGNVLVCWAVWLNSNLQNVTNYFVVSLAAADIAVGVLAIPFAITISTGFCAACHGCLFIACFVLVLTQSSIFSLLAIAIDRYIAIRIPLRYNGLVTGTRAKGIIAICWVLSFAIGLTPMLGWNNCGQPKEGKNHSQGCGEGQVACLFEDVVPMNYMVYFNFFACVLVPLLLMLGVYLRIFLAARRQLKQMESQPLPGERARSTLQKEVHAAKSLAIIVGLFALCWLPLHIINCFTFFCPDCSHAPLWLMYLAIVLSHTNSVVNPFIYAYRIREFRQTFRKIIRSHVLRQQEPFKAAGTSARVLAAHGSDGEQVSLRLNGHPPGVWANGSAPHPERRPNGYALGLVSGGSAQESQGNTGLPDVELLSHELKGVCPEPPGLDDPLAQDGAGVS
Chain of Motilin receptor (O43193 whole entry): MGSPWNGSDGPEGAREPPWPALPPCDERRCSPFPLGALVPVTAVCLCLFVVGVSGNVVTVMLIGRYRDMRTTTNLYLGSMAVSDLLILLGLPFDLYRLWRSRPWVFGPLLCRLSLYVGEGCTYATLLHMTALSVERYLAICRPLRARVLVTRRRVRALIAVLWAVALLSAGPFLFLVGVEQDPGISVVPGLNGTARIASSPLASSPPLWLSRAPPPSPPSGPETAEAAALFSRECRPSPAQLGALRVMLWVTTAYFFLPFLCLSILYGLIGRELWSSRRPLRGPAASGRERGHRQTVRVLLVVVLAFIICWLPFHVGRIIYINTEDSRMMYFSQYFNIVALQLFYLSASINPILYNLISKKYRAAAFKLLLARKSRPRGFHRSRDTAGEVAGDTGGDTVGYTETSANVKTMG
Chain of Sodium-dependent noradrenaline transporter (P23975 whole entry): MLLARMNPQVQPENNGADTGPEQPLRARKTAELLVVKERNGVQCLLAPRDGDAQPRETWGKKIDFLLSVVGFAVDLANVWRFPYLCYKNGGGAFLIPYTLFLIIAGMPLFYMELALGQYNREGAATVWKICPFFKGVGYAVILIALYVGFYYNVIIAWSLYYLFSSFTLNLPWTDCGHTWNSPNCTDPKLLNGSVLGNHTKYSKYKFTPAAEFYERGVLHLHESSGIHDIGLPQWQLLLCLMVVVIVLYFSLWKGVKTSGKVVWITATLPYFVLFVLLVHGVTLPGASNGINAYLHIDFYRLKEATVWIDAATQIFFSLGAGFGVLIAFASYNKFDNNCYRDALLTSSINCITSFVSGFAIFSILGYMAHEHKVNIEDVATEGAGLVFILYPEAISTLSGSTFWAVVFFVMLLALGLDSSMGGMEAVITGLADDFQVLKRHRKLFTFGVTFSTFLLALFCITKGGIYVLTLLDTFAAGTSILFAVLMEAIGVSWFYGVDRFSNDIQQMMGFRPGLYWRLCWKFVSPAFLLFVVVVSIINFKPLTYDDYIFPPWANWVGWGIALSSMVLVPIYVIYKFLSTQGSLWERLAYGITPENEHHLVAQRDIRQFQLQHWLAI
Chain of D(3) dopamine receptor (P35462 whole entry): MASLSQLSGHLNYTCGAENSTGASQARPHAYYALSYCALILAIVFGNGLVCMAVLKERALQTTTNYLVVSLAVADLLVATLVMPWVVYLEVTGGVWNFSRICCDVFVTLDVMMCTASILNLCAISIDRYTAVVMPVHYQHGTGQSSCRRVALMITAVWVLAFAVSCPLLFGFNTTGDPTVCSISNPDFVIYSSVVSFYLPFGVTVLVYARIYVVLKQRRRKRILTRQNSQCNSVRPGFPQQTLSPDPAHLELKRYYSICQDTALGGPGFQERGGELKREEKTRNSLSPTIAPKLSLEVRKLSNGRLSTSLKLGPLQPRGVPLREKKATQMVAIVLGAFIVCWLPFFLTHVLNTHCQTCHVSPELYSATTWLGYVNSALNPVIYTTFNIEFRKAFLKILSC
Chain of Growth hormone secretagogue receptor type 1 (Q92847 whole entry): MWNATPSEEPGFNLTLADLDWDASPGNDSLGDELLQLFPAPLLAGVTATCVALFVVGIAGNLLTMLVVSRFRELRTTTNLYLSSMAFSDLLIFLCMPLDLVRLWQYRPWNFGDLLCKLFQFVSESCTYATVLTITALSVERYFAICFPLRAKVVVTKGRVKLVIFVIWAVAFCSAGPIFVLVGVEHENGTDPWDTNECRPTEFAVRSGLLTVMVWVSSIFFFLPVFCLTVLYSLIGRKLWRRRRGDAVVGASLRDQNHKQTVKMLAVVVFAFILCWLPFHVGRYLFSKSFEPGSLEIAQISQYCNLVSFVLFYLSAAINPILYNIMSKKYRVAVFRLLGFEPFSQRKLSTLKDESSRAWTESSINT
Chain of Bile salt export pump (O95342 whole entry): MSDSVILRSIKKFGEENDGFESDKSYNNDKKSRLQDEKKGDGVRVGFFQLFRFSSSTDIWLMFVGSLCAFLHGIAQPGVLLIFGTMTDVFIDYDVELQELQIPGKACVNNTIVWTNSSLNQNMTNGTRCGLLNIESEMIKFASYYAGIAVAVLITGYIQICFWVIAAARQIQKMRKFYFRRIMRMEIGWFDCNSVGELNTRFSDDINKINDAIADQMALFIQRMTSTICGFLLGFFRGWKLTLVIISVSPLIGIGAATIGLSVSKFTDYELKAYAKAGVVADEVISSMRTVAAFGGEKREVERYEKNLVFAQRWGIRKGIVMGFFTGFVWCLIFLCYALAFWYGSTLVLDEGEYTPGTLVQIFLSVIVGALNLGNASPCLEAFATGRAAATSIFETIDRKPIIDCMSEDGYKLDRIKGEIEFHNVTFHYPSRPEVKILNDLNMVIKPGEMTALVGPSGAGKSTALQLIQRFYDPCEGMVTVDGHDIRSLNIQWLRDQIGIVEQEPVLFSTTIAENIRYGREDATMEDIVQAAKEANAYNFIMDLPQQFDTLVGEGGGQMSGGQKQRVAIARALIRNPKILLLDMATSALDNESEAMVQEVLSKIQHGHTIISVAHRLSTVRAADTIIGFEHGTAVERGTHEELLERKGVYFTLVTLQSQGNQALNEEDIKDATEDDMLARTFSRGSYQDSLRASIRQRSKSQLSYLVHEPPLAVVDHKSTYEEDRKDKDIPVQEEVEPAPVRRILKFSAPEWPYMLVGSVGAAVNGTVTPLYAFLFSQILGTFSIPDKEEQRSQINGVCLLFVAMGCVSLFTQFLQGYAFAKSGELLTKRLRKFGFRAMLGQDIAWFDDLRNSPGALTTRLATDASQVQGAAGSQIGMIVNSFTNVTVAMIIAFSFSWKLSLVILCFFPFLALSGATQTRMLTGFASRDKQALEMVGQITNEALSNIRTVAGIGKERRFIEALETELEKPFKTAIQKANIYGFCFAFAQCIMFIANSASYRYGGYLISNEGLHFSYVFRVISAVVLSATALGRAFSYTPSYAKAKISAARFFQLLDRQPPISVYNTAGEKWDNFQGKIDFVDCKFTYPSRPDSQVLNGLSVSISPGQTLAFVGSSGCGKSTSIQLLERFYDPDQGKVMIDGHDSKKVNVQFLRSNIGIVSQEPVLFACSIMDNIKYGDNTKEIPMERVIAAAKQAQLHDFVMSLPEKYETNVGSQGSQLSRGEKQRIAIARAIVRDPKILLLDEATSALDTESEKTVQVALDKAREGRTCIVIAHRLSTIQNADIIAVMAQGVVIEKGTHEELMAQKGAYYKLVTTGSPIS

Row | SMILES | AC50 (Melanocortin receptor 3) | AC50 [1] | AC50 [2] | AC50 [3] | AC50 [4] | AC50 (Adenosine receptor A3) | AC50 (Motilin receptor) | AC50 (Bile salt export pump) | AC50 [5] | AC50 [6] | AC50 [7] | AC50 (D(3) dopamine receptor) | AC50 (Adenosine receptor A2a) | AC50 [8]
1 | CCOCC(O)COc1ccc(NC(=O)CC[S+](C)C)cc1 (stereo unspecified) | > 30 µM | > 30 µM | > 30 µM | > 30 µM | > 30 µM | > 30 µM | > 30 µM | > 300 µM | > 30 µM | > 30 µM | > 30 µM | > 30 µM | > 30 µM | > 30 µM
2 | CCOC(=O)[C@H](CCc1ccccc1)N[C@@H](C)C(=O)N1Cc2ccccc2C[C@H]1C(=O)O | > 30 µM | > 30 µM | > 10 µM | > 30 µM | > 10 µM | > 30 µM | > 10 µM | 100 µM | > 10 µM | > 10 µM | > 10 µM | > 10 µM | > 30 µM | > 10 µM
3 | O=C(O)COC(=O)Cc1ccccc1Nc1c(Cl)cccc1Cl [ACECLOFENAC] | > 30 µM | > 30 µM | > 10 µM | > 30 µM | > 10 µM | > 30 µM | > 10 µM | 130 µM | > 30 µM | > 10 µM | > 10 µM | > 30 µM | > 30 µM | > 30 µM
4 | CN(C)CCc1c[nH]c2ccc(CS(=O)(=O)N3CCCC3)cc12 [ALMOTRIPTAN] | > 30 µM | > 30 µM | > 30 µM | > 30 µM | > 30 µM | > 30 µM | > 30 µM | > 300 µM | > 30 µM | 25 µM | > 30 µM | > 30 µM | > 30 µM | > 30 µM
5 | CC[N+](CC)(CCNC(=O)C(=O)NCC[N+](CC)(CC)Cc1ccccc1Cl)Cc1ccccc1Cl [AMBENONIUM] | > 30 µM | > 30 µM | > 30 µM | > 30 µM | > 30 µM | > 30 µM | > 30 µM | > 300 µM | > 30 µM | > 30 µM | > 30 µM | > 30 µM | > 30 µM | 10 µM
6 | NCCCNCCSP(=O)(O)O [AMIFOSTINE] | > 30 µM | > 30 µM | > 30 µM | > 30 µM | > 30 µM | > 30 µM | > 30 µM | > 300 µM | > 30 µM | > 30 µM | > 30 µM | > 30 µM | > 30 µM | > 30 µM
7 | NCCCCCC(=O)O [AMINOCAPROIC ACID] | > 10 µM | > 10 µM | > 10 µM | > 10 µM | > 10 µM | > 10 µM | > 10 µM | > 300 µM | > 30 µM | > 10 µM | > 10 µM | > 30 µM | > 10 µM | 20.4 µM
8 | CN1CC2c3ccccc3Oc3ccc(Cl)cc3C2C1 (stereo unspecified) [ASENAPINE] | > 30 µM | > 30 µM | > 30 µM | 24 µM | > 30 µM | > 30 µM | > 30 µM | 270 µM | 18 µM | > 10 µM | 0.0013 µM | 0.0044 µM | > 30 µM | 17 µM
9 | CC(=O)Oc1ccccc1C(=O)O [ASPIRIN] | > 30 µM | > 30 µM | > 10 µM | > 30 µM | > 10 µM | > 30 µM | > 10 µM | > 300 µM | > 30 µM | > 10 µM | > 10 µM | > 30 µM | > 30 µM | > 30 µM

Source: ChEMBL document CHEMBL5291721, “A preclinical secondary pharmacology resource illuminates target-adverse drug reaction associations of marketed drugs” (Nat Commun, 2023)
